These results are taken from patent publication US20190124918A1, “BIOFILM FORMATION INHIBITOR AND BIOFILM FORMATION INHIBITING COMPOSITION” (KAO CORPORATION, priority 2016, published 2019).

For orientation: inhibition means the drop in the measured response relative to a control, in per cent.

Some results are limits rather than exact numbers.

Series [1] is described as follows: Dissolution in solvent (MDG) when preparing compositions. It counts as physicochemical. Conditions: preparation of compositions. How it is done: (§1) Predetermined amounts of p-toluquinone and HEDP were weighed and solvent (MDG) was added to prepare a composition. Since citric acid and EDTA were not dissolved in MDG, they were directly added in culture solutions; at the same time, p-toluquinone was directly added to the culture solutions.

The test system of series [2] is biofilm-forming microbe isolated from cooling water taken from a water cooling tower. Nature of the series: Biofilm inhibition test, quinone-based compound and chelating agent (OD570). It counts as cell-based. Conditions: Experiment No. 19: Toluquinone 0 ppm, Citric acid 10 ppm; 0 ppm/0 ppm gave 0.329. As to the method:
A biofilm-forming microbe (microbe showing a OD570 value of 0.3 or more in the test for determining the amount of biofilm (the following section 2-4)) isolated from cooling water taken from a water cooling tower was cultured in R2A culture medium at 30° C. for 16 hours while shaking. The turbidity (OD600) of the resultant culture solution was measured. The culture solution was diluted with R2A culture medium to prepare a suspension of 10^3 cfu/mL.
as §1
The suspension of a test microbe prepared in the above section 2-1) was added in individual wells of a 96 well microplate in an amount of 150 μL, and then, the test solutions prepared in the above section 2-2) was each added and culture was initiated.
After the 96 well microplate was subjected to stationary culture performed at 30° C. for 48 hours, the culture solution was removed and the resultant microplate was washed with water. Subsequently, each well was stained with 0.1% crystal violet and 200 μL of ethanol was added. The absorbance (OD570) was measured to obtain the amount of biofilm (BF) formed.

Series [3] relates to Pseudomonas PAO1 strain (ATCC 15692). Nature of the series: Growth of test microbe (turbidity OD600), 96-well microplate culture. In kind it is cell-based. Conditions: Pseudomonas. In outline:
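P. aeruginosa PAO1 diluted in Mueller Hinton Broth, exposed to test compound (ethanol stock evaporated onto DMSO in wells) and grown static at 30° C for 24 h; growth read as OD600. Growth inhibition % = (1 − compound OD600/ethanol-control OD600) × 100.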

The next series has as its system B. coli. Particulars: to B. coli; Non Patent Literature 4; cited from earlier work.
In series [4] the test system is Pseudomonas PAO1 strain (ATCC 15692). As to the kind of experiment: Amount of biofilm formed (crystal violet, OD570), 96-well microplate culture. It counts as cell-based. Conditions: Pseudomonas, read-out: BF inhibition (%). In outline:
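PAO1 suspension in Mueller Hinton Broth (OD600 1/10^6) grown stationary 24 h at 30 °C with compounds dried from ethanol plus DMSO, final about 7–333 ppm or as listed. Biofilm stained with 0.1% crystal violet, ethanol-eluted, OD570; inhibition % = {1−(compound OD570/ethanol-control OD570)}×100.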

`O=C(O)CC(O)(CC(=O)O)C(=O)O` [Citric acid]: the “dissolution in MDG (diethylene glycol monomethyl ether)” value in series [1] was “not dissolved”. Also, the OD570 in series [2] is 0.261.

Take `CC(C)(C)c1cc(O)ccc1O` [c, tert-Butylhydroquinone]: the inhibition at 22 ppm is less than 0% in series [3] (final concentration 22 ppm) and 34.8% in series [4] (final concentration 22 ppm). Also, the inhibition at 44 ppm is 5.3% in series [3] (final concentration 44 ppm) and 22.5% in series [4] (final concentration 44 ppm). The inhibition at 89 ppm in series [3] (final concentration 89 ppm) was 9.5%; in series [4] (final concentration 89 ppm) it was 32.5%. Besides, the results for the inhibition at 133 ppm in series [3] (final concentration 133 ppm) and in series [4] (final concentration 133 ppm) were less than 0% and 50%, respectively. Moreover, the inhibition at 155 ppm in series [3] (final concentration 155 ppm) was determined as 11.8%; in series [4] (final concentration 155 ppm), 69.3%. Moreover, the inhibition at 177 ppm was found to be 13.3% in series [3] (final concentration 177 ppm) and 64.8% in series [4] (final concentration 177 ppm). Moreover, the “minimum inhibitory concentration (MIC)” value in the series with B. coli was 512 ppm.
